Data on two compounds can be found in patent publication US12186289B2, “Compositions for feeding a pregnant animal” (Nutreco IP Assets B.V., priority 2018, dated 2025).

In the test the test system is sows. The experiment in a line: Example 1: top dress with a single ingredient fed to pregnant sows from day 80 of gestation to parturition; colostrum intake and gain of litters. Type of test: in vivo, pigs. The settings on record: for Total colostrum intake per litter / Average daily gain to day 7, kg per litter: corrected for litter size, sorbic acid 5 g; for Total colostrum intake per litter: 100 g/day top dress, day 80 of gestation up to parturition, betaine 3 g daily, estimated by Theil et al. algorithm; for Average daily gain to day 7, kg per litter: betaine 3 g daily in 100 g top dress.

Molecules are shown by their SMILES.

As for `C[N+](C)(C)CC(=O)[O-]` [Betaine, trimethylglycine], the “Average daily gain to day 7 compared to the control (in words)” value is “negative effect”; the “Colostrum intake per litter compared to the control (in words)” value is listed as “substantially lower”; the “Total colostrum intake per litter” value is recorded as 5784 g; the “Average daily gain to day 7, kg per litter” value was found to be 16.1 kg per litter.

Consider `CC=CC=CC(=O)O` [Sorbic acid, 2,4-hexadienoic acid], for which the “Average daily gain to day 7 compared to the control (in words)” value is reported as “same result as the control”; the “Colostrum intake per litter compared to the control (in words)” value is listed as “slightly lower”; the “Total colostrum intake per litter” value is listed as 6227 g; the “Average daily gain to day 7, kg per litter” value came out at 18.2 kg per litter.
